Source: patent US9353155B2, “Cell-penetrating peptides” (Universite Pierre et Marie Curie (Paris 6), priority 2011, dated 2016)
No end group written: not given here.

Columns and labels:
[1] = type: in vitro ADME, human
Procedure: The ratio of intensity of each pick is represented, relative to its own control. The R residue was mutated to K (Mut1-DPT-C9h), N (Mut2-DPT-C9h) or A (Mut3-DPT-C9h). Round: control DPT-C9h peptide (SEQ ID NO:6), Square: Mut1-DPT-C9h, Triangle: Mut2-DPT-C9h, Diamond: Mut3-DPT-C9h.
Analysis Peptide Stability in Human Serum
Analysis of peptides degradation was done by Proteominer and Maldi-Tof as previously described.

[2] = system: tumoral B cells isolated from chronic lymphocyte leukemia patients; details: cited from earlier work
human cell lines = details: cited from earlier work
[3] = system: human breast cancer xenograft; details: injected in mice bearing human breast cancer xenograft; cited from earlier work

| degradation upon contact with human serum [1] | Substance | effect on healthy cells [2] | apoptotic effect ([2]; tumoral B cells isolated from chronic lymphocyte leukemia patients) | induction of apoptosis (human cell lines) | size of tumor [3] |
| --- | --- | --- | --- | --- | --- |
| not degraded | VKKKKIKAEIKIYVETLDDIFEQWAHSEDL [Mut3-DPT-C9h, VKKKKIKAEIKI-YVETLDDIFEQWAHSEDL] | – | – | – | – |
| – | VKKKKIKREIKI-YVETLDDIFEQWAHSEDL (VKKKKIKREIKIYVETLDDIFEQWAHSEDL; cell penetrating peptide) [DPT-C9h, control] | without effect | specific apoptotic effect | induces apoptosis | important reduction |
